{"source": "ChEMBL document CHEMBL4251548", "about": "“Efficient click chemistry towards fatty acids containing 1,2,3-triazole: Design and synthesis as potential antifungal drugs for Candida albicans” (2017)", "key": {"[1]": {"system": "Candida albicans", "experiment": "Antifungal activity against Candida albicans SC5314 assessed as inhibition of yeast growth at <15 uM after 24 hrs by CLSI broth microdilution method", "assay_type": "functional, organism-based"}, "[2]": {"system": "Candida albicans", "experiment": "Antifungal activity against Candida albicans SC5314 assessed as inhibition of yeast growth at >30 uM after 24 hrs by CLSI broth microdilution method", "assay_type": "functional, organism-based"}, "[3]": {"system": "Candida albicans", "experiment": "Antifungal activity against Candida albicans SC5314 assessed as inhibition of yeast growth at 60 uM after 24 hrs by CLSI broth microdilution method relative to control", "assay_type": "functional", "details": "SC5314, 24 h"}, "[4]": {"system": "Candida albicans", "experiment": "Inhibition of germ tube formation in Candida albicans SC5314 assessed as reduction in yeast to hyphal conversion at >200 uM after 4 hrs by differential interference contrast microscopic analysis relative to control", "assay_type": "functional"}, "[5]": {"system": "Candida albicans", "experiment": "Inhibition of hypal growth in Candida albicans SC5314 assessed as length of germ tube at 200 uM measured immediately by differential interference contrast microscopic analysis (reference value: 70.3 +/- 12.3 micrometer)", "assay_type": "functional"}, "[6]": {"system": "Candida albicans", "experiment": "Inhibition of hypal growth in Candida albicans SC5314 assessed as length of germ tube at 200 uM after 3 hrs by differential interference contrast microscopic analysis (reference value: 149.9 +/- 22.3 micrometer)", "assay_type": "functional"}, "[7]": {"system": "Candida albicans", "experiment": "Inhibition of hypal growth in Candida albicans SC5314 assessed as length of germ tube at 200 uM after 6 hrs by differential interference contrast microscopic analysis (reference value: 235.2 +/- 40.4 micrometer)", "assay_type": "functional"}, "[8]": {"system": "Candida albicans", "experiment": "Inhibition of hypal growth in Candida albicans SC5314 assessed as length of germ tube at 200 uM after 9 hrs by differential interference contrast microscopic analysis (reference value: 223.9 +/- 24.5 micrometer)", "assay_type": "functional"}, "[9]": {"system": "Candida albicans", "experiment": "Antifungal activity against Candida albicans SC5314 assessed as inhibition of yeast growth at >120 uM after 24 hrs by CLSI broth microdilution method", "assay_type": "functional, organism-based"}, "[10]": {"system": "Candida albicans", "experiment": "Inhibition of germ tube formation in Candida albicans SC5314 assessed as reduction in yeast to hyphal conversion at 30 to 300 uM after 4 hrs by differential interference contrast microscopic analysis", "assay_type": "functional, organism-based"}, "[11]": {"system": "Candida albicans", "experiment": "Inhibition of germ tube formation in Candida albicans SC5314 assessed as yeast to hyphal conversion at 30 to 300 uM after 2 hrs by differential interference contrast microscopic analysis relative to control", "assay_type": "functional", "parameters": "scale not given: the % may be the effect or the level left"}}, "note": "Active and inactive are the calls of the source. The calls are words filed in the database; no cut-off is given here.", "data": [{"smiles": "CCCCCCCCCCn1cc(C(=O)O)nn1", "values": [{"measurement": "inhibition", "setting": "[1]", "result": "Active"}, {"measurement": "inhibition", "setting": "[2]", "result": "Active"}, {"measurement": "inhibition at 60 µM", "setting": "[3]", "result": 90, "unit": "%"}, {"measurement": "inhibition (INH)", "setting": "[4]", "result": 95, "unit": "%"}, {"measurement": "Activity", "setting": "[5]", "result": 71.8, "unit": "um"}, {"measurement": "Activity", "setting": "[6]", "result": 59.1, "unit": "um"}, {"measurement": "Activity", "setting": "[7]", "result": 45, "unit": "um"}, {"measurement": "Activity", "setting": "[8]", "result": 53.3, "unit": "um"}]}, {"smiles": "CCCCCCn1cc(C(=O)O)nn1", "values": [{"measurement": "inhibition", "setting": "[1]", "result": "Active"}, {"measurement": "inhibition", "setting": "[9]", "result": "Active"}, {"measurement": "inhibition", "setting": "[10]", "result": "Active"}, {"measurement": "Activity", "setting": "[5]", "result": 66.5, "unit": "um"}, {"measurement": "Activity", "setting": "[6]", "result": 142.8, "unit": "um"}, {"measurement": "Activity", "setting": "[7]", "result": 207.8, "unit": "um"}, {"measurement": "Activity", "setting": "[8]", "result": 223.5, "unit": "um"}]}, {"smiles": "CCCCCCCCn1cc(C(=O)O)nn1", "values": [{"measurement": "inhibition", "setting": "[1]", "result": "Active"}, {"measurement": "inhibition", "setting": "[2]", "result": "Active"}, {"measurement": "inhibition at 60 µM", "setting": "[3]", "result": 90, "unit": "%"}, {"measurement": "inhibition", "setting": "[9]", "result": "Active"}, {"measurement": "inhibition (INH)", "setting": "[4]", "result": 95, "unit": "%"}, {"measurement": "Activity", "setting": "[5]", "result": 73.4, "unit": "um"}, {"measurement": "Activity", "setting": "[6]", "result": 64.4, "unit": "um"}, {"measurement": "Activity", "setting": "[7]", "result": 54.6, "unit": "um"}, {"measurement": "Activity", "setting": "[8]", "result": 74.2, "unit": "um"}]}, {"smiles": "CCCCCCCCC/C=C\\C(=O)O", "values": [{"measurement": "inhibition", "setting": "[1]", "result": "Active"}, {"measurement": "inhibition", "setting": "[2]", "result": "Active"}, {"measurement": "inhibition", "setting": "[10]", "result": "Active"}, {"measurement": "Activity", "setting": "[5]", "result": 65.3, "unit": "um"}, {"measurement": "Activity", "setting": "[6]", "result": 73.3, "unit": "um"}, {"measurement": "Activity", "setting": "[7]", "result": 63.5, "unit": "um"}, {"measurement": "Activity", "setting": "[8]", "result": 64.2, "unit": "um"}]}, {"smiles": "CCCCCCCCc1ccc(C(=O)O)s1", "values": [{"measurement": "Activity", "setting": "[11]", "result": ">95", "unit": "%"}]}, {"smiles": "O=C(O)c1cn(CCCCCCO)nn1", "values": [{"measurement": "inhibition", "setting": "[1]", "result": "Active"}, {"measurement": "inhibition", "setting": "[10]", "result": "Active"}]}, {"smiles": "CCCCCCCCOc1ccc(C(=O)O)cc1", "values": [{"measurement": "Activity", "setting": "[11]", "result": ">95", "unit": "%"}]}]}
